Values after ≈ are worked out from the molar mass of the structure shown. Read-outs that look alike come from different tables or passages of the source.
How the values were obtained:
[1] = test system: CYP1A1; design: method as in PMID 12584850; conditions: rat liver microsomes; cited from earlier work
[2] = test system: P-gp; design: method as in PMID 16904803; conditions: in vitro study; cited from earlier work
[3] = test system: CYP3A; design: method as in PMID 12584850; conditions: rat liver microsomes; cited from earlier work
[4] = test system: CYP2E1; design: method as in PMID 12584850; conditions: rat liver microsomes; cited from earlier work
[5] = design: method as in PMID 19929808; conditions: cited from earlier work
[6] = test system: cell membranes; design: method as in PMID 24870200; conditions: cited from earlier work
[7] = Phase-solubility test of PTX in GA / ethanol-water solutions; format: physicochemical
Experimental: The phase-solubility test was performed with a previously reported method. An excess quantity of PTX was taken into clean and dry vials containing 1 mL of various concentrations of GA solutions ([…]). […] Ultimately, the samples were filtered through 0.45 μm filters and the concentrations of PTX were detected by high performance liquid chromatography (HPLC; LC-20A, Shimadzu, Japan) (see Section 3.3.6.). All tests were repeated at least three times.

[8] = design: method as in PMID 11879753; conditions: cited from earlier work
[9] = design: method as in PMID 7939764; conditions: cited from earlier work

Row | Structure (SMILES) | inhibitor of CYP1A1 [1] | inhibition of the function of P-gp [2] | inhibitor of CYP3A [3] | inhibitor of CYP2E1 [4] | critical micelle concentration [5] | increase of the permeability of cell membranes [6] | solubility at 48 h ([7]; 10 mM GA solution in water, aqueous with cosolvent or surfactant or cyclodextrin, thermodynamic from solid, water, in the presence of 10 mM GA, 25 °C, read-out: solubility of PTX) | solubility at 48 h ([7]; 7.5% ethanol in water with 10 mM GA, 25 °C, aqueous with cosolvent or surfactant or cyclodextrin, thermodynamic from solid, optimal ethanol percentage (7.5%) with GA (10 mM), read-out: PTX solubility) | solubility increase ([7]; 7.5% ethanol with GA vs solubility of PTX in water) | solubility at 48 h ([7]; ethanol-water mixtures without GA, 0%, 5%, 7.5%, 10% and 25% ethanol in water, without GA, read-out: solubility of PTX in different percentages of ethanol) | solubility at 48 h ([7]; water, absence of GA, 25 °C, read-out: solubility of PTX in water) | aqueous solubility [8] | oral bioavailability [9]
1 | CC1(C)[C@@H](O[C@H]2O[C@H](C(=O)O)[C@@H](O)[C@H](O)[C@H]2O[C@@H]2O[C@H](C(=O)O)[C@@H](O)[C@H](O)[C@H]2O)CC[C@]2(C)[C@H]3C(=O)C=C4[C@@H]5C[C@@](C)(C(=O)O)CC[C@]5(C)CC[C@@]4(C)[C@]3(C)CC[C@@H]12 [GA, Glycyrrhizic acid] | inhibitor | inhibited the function of P-gp | inhibitor | inhibitor | 10^−3 M | about 60% | – | – | – | – | – | – | –
2 | CC(=O)O[C@H]1C(=O)[C@@]2(C)[C@H]([C@H](OC(=O)c3ccccc3)[C@]3(O)C[C@H](OC(=O)[C@H](O)[C@@H](NC(=O)c4ccccc4)c4ccccc4)C(C)=C1C3(C)C)[C@]1(OC(C)=O)CO[C@@H]1C[C@@H]2O [PTX, Paclitaxel] | – | – | – | – | – | – | 124 µg/mL | 823 ± 14.4 µg/mL (≈ 964 µM) | more than 1,000 fold | ≤ 30 µg/mL | ~0.67 µg/mL (≈ 0.785 µM) | < 1 µg/mL | < 2%
